Measurements: ChEMBL document CHEMBL1127104, “L-708,474: The C5-cyclohexyl analogue of L-365,260, a selective high affinity ligand for the CCKB/gastrin receptor” (Bioorg Med Chem Lett, 1993)

Each molecule was assayed against T1, Cholecystokinin receptor type A (Rattus norvegicus, UniProt P30551) (assay: In vitro test for inhibition of [125I]CCK binding to Cholecystokinin type A receptor from rat pancreatic tissues was determined).
T1 sequence (P30551 whole entry): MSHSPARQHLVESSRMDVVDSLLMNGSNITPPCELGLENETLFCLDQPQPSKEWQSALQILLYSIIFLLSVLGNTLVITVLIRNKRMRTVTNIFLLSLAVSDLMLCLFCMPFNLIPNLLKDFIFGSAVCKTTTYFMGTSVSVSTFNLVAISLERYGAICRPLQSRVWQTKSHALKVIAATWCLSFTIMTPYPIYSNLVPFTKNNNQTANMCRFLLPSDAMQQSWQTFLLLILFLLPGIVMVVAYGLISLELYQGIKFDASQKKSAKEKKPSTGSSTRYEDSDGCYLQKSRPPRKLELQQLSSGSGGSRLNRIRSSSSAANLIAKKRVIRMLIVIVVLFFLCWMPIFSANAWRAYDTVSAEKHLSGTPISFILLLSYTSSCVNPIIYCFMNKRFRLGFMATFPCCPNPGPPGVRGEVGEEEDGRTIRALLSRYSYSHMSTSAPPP
Molecule Cc1cccc(NC(=O)NC2N=C(C3CCC3)c3ccccc3N(C)C2=O)c1 (stereo not drawn) has an IC50 of 402 nM. With Cc1cccc(NC(=O)NC2N=C(C3CCCC3)c3ccccc3N(C)C2=O)c1 (stereo not drawn) the IC50 was 27.1 nM. Molecule Cc1cccc(NC(=O)N[C@@H]2N=C(c3ccccc3)c3ccccc3N(C)C2=O)c1 [L-365260] has an IC50 of 736 nM.
